Experiments:
[1] = biological target: T1, IKK heterodimer (rhIKK1/IKK2 heterodimer) (Homo sapiens, UniProt O14920+O15111); assay: IKK heterodimer Resin Enzyme Assay; format: biochemical; settings: biotinylated IκBα peptide 5 μM, 1 μM ATP, 25° C., 30 min; read-out: HetD (IKK heterodimer Resin Enzyme Assay expressed as IC50)
T1 construct: made in house; host or cells: insect cells (baculovirus coinfection; SF9 cell paste)
T1 sequence (O15111 1-745): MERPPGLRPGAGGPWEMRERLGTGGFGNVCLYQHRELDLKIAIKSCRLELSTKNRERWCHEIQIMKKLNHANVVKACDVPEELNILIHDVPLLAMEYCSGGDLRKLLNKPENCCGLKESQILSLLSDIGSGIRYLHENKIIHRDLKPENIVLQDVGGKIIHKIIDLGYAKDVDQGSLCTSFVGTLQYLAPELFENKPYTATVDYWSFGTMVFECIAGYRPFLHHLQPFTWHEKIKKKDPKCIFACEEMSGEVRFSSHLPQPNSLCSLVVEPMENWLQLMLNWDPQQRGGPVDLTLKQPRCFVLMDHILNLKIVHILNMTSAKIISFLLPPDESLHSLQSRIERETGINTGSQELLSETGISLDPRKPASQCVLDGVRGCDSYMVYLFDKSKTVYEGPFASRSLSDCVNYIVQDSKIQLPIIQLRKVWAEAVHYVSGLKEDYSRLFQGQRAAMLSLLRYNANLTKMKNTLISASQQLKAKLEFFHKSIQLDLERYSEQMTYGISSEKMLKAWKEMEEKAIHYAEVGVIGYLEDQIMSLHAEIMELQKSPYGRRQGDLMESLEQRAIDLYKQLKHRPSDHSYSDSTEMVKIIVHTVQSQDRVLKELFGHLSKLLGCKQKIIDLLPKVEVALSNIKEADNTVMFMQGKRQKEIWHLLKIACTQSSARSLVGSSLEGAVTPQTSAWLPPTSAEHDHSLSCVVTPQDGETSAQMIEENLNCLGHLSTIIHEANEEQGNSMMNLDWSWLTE
T1 sequence (O14920 1-756): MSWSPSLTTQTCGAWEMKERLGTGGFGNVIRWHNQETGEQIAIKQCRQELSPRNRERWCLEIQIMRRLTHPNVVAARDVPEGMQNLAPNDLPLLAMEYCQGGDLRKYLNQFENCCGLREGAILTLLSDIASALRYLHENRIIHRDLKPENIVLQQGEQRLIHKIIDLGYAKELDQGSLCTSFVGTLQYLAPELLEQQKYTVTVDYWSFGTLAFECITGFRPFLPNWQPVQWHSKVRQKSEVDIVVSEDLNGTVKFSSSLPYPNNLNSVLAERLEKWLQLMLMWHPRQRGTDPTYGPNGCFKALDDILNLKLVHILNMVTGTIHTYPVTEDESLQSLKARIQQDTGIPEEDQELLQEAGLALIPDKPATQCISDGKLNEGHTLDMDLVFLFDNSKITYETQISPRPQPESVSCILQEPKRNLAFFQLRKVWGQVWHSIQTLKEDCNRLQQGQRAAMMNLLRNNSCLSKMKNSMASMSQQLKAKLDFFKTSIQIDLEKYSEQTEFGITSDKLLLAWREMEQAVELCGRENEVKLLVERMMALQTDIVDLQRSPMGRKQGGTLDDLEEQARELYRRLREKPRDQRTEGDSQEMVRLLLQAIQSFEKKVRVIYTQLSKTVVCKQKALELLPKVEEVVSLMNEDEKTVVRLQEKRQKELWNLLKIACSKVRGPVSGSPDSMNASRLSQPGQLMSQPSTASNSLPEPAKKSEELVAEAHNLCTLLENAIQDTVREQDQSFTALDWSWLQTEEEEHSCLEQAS
Description: cDNAs of human IKK1 and IKK2 were amplified by reverse transcriptase-polymerase chain reaction from human placental RNA (Clonetech). hIKK1 was subcloned into pFastBac HTa (Life Technologies) and expressed as N-terminal His6-tagged fusion protein. The hIKK2 cDNA was amplified using a reverse oligonucleotide primer which incorporated the peptide sequence for a FLAG-epitope tag at the C-terminus of the IKK2 coding region (DYKDDDDKD). The hIKK2:FLAG cDNA was subcloned into the baculovirus vector pFastBac. The rhIKK2 ([…]) mutant was constructed in the same vector used for wild type rhIKK2 using a QuikChange™ mutagenesis kit (Stratagene) Viral stocks of each construct were used to infect insect cells grown in 40L suspension culture. […] Cell lysates were stored at −80° C. until purification of the recombinant proteins was undertaken as described in the succeeding sections.
Isolation of rhIKK1/IKK2 Heterodimer
The heterodimer enzyme was produced by coinfection in a baculovirus system (FLAG IKK2/IKK1 His; MOI=0.1 and I=72 hrs). Infected cells were centrifuged and the cell pellet (10.0 g) was suspended in 50 ml of buffer A. The protein suspension was microfluidized and centrifuged at 100,000×g for 45 min. Imidazole was added to the supernatant to a final concentration of 10 mM. The protein was allowed to bind 25 ml of Ni-NTA resin by mixing for 2 hrs. The protein-resin slurry was poured into a 25 ml column and washed with 250 ml of buffer A containing 10 mM imidazole followed by 125 ml of buffer A containing 50 mM imidazole. Buffer A, containing 300 mM imidazole, was then used to elute the protein. A 75 ml pool was collected and NP-40 was added to a final concentration of 0.1%. The protein solution was then dialyzed against buffer B. The dialyzed heterodimer enzyme was then allowed to bind to 25 ml of anti-FLAG M2 agarose affinity gel overnight with constant mixing. The protein-resin slurry was then centrifuged for 5 min at 2,000 rpm. The supernatant was collected and the resin re-suspended in 100 ml of buffer C containing 0.1% NP-40. The resin was washed with 375 ml of buffer C containing 0.1% NP-40. The protein-resin was poured into a 25 ml column and the enzyme eluted using buffer B containing FLAG peptide. Enzyme fractions (100 ml) were collected and concentrated to 20 ml using an Amicon membrane with molecular weight cut-off of 30 kDa. Bovine serum albumin was added to the concentrated enzyme to final concentration of 0.1%. The enzyme was then aliquoted and stored at −80° C.
IKK heterodimer Resin Enzyme Assay
IKK heterodimer kinase activity was measured using a biotinylated IκBα peptide (Gly-Leu-Lys-Lys-Glu-Arg-Leu-Leu-Asp-Asp-Arg-His-Asp-Ser32-Gly-Leu-Asp-Ser36-Met-Lys-Asp-Glu-Glu) (American Peptide Co.). […] ATP was measured using a Top-Count NXT (Packard).

NC(=O)c1nn(-c2ccc(S(N)(=O)=O)cc2)c2ccncc12 [Example 8, 1-[4-(aminosulfonyl)phenyl]-1H-pyrazolo[4,3-c]pyridine-3-carboxamide]
melting point: 301 to 302 °C

CCOc1ccc2c(C(N)=O)nn(-c3ccc(S(N)(=O)=O)cc3)c2c1 [Example 13, 1-[4-(aminosulfonyl)phenyl]-6-ethoxy-1H-indazole-3-carboxamide]
melting point: 213 to 214 °C

Cc1cc(-c2ccc3c(C(N)=O)nn(-c4ccc(S(N)(=O)=O)cc4)c3c2)ccc1F [Example 5, 1-[4-(aminosulfonyl)phenyl]-6-(4-fluoro-3-methylphenyl)-1H-indazole-3-carboxamide]
melting point: 300 to 302 °C

NC(=O)c1nn(-c2ccc(S(N)(=O)=O)cc2)c2cc(-c3ccccc3)ccc12 [Example 10, 1-[4-(aminosulfonyl)phenyl]-6-phenyl-1H-indazole-3-carboxamide]
melting point: 232 to 234 °C

CN(C)c1cccc(-c2ccc3c(C(N)=O)nn(-c4ccc(S(N)(=O)=O)cc4)c3c2)c1 [Example 6, 1-[4-(aminosulfonyl)phenyl]-6-[3-(dimethylamino)phenyl]-1H-indazole-3-carboxamide]
IC50 [1]: > 100 µM
melting point: 237 to 238 °C

CC(C)(C)c1ccc(-c2ccc3c(C(N)=O)nn(-c4ccc(S(N)(=O)=O)cc4)c3c2)cc1 [Example 4, 1-[4-(aminosulfonyl)phenyl]-6-(4-tert-butylphenyl)-1H-indazole-3-carboxamide]
IC50 [1]: > 100 µM
melting point: 262 to 263 °C

NC(=O)c1nn(-c2ccc(S(N)(=O)=O)cc2)c2cc(-c3cccnc3)ccc12 [Example 15, 1-[4-(aminosulfonyl)phenyl]-6-pyridin-3-yl-1H-indazole-3-carboxamide]
melting point: 310 to 313 °C

NC(=O)c1nn(-c2ccc(S(N)(=O)=O)cc2)c2cc(Cc3ccccc3)ccc12 [Example 12, 1-[4-(aminosulfonyl)phenyl]-6-benzyl-1H-indazole-3-carboxamide]
melting point: 207 to 209 °C

COc1ccc(-c2ccc3c(C(N)=O)nn(-c4ccc(S(N)(=O)=O)cc4)c3c2)cc1 [Example 1, 1-[4-(aminosulfonyl)phenyl]-6-(4-methoxyphenyl)-1H-indazole-3-carboxamide]
IC50 [1]: > 100 µM
melting point: 258 to 259 °C

NC(=O)c1nn(-c2ccc(S(N)(=O)=O)cc2)c2cc(-c3ccc(F)cc3)ccc12 [Example 2, 1-[4-(aminosulfonyl)phenyl]-6-(4-fluorophenyl)-1H-indazole-3-carboxamide]
melting point: 314 to 315 °C

Cc1cccc(-c2ccc3c(C(N)=O)nn(-c4ccc(S(N)(=O)=O)cc4)c3c2)c1 [Example 3, 1-[4-(aminosulfonyl)phenyl]-6-(3-methylphenyl)-1H-indazole-3-carboxamide]
melting point: 261 to 263 °C

CNc1cccc(-c2ccc3c(C(N)=O)nn(-c4ccc(S(N)(=O)=O)cc4)c3c2)c1 [Example 7, 1-[4-(aminosulfonyl)phenyl]-6-[3-(methylamino)phenyl]-1H-indazole-3-carboxamide]
melting point: 159 to 160 °C

CCc1ccc2c(C(N)=O)nn(-c3ccc(S(N)(=O)=O)cc3)c2c1 [Example 14, 1-[4-(aminosulfonyl)phenyl]-6-ethyl-1H-indazole-3-carboxamide]
melting point: 249 to 251 °C

Cc1ccc2c(C(N)=O)nn(-c3ccc(S(N)(=O)=O)cc3)c2c1 [Example 9, 1-[4-(aminosufony)phenyl]-6-methyl-1H-indazole-3-carboxamide]
melting point: 251 to 252 °C

COc1cccc(-c2ccc3c(C(N)=O)nn(-c4ccc(S(N)(=O)=O)cc4)c3c2)c1 [Example 11, 1-[4-(aminosulfonyl)phenyl]-6-(3-methoxyphenyl)-1H-indazole-3-carboxamide]
IC50 [1]: 1 µM
melting point: 229 to 230 °C

Reference: patent US20030109550A1, “Substituted indazole compounds for the treatment of inflammation” (priority 2001, published 2003)
